Measurements from patent US10106556B2, “Heterocyclic compound” (TAKEDA PHARMACEUTICAL COMPANY LIMITED, priority 2015, dated 2018).

biological target: T1, His-hMAGL (recombinant polyhistidine tagged human MAGL protein) (Homo sapiens, UniProt Q99685); assay: Measurement of MAGL inhibitory activity (arachidonic acid production from 2-arachidonylglycerol, RapidFire-mass spectrometry); type: biochemical; settings: MAGL inhibitory rate at 10 μM test compound; 60 min preincubation with His-hMAGL, 2-arachidonylglycerol substrate, 10 min reaction at room temperature
T1 construct: made in house; host or cells: E. coli BL21(DE3)
T1 sequence (Q99685 1-303): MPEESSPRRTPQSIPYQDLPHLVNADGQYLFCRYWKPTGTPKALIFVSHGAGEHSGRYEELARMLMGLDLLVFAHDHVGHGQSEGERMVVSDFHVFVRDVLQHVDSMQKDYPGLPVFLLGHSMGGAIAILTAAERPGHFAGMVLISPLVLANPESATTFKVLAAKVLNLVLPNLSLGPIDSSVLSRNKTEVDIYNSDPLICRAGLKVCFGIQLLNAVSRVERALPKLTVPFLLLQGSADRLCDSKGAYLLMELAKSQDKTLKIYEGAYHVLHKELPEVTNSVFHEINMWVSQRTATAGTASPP
How it was run: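 Recombinant His-tagged human MAGL converted 2-arachidonylglycerol to arachidonic acid. Reactions received acetonitrile with 3 μM arachidonic acid-d8 as internal standard, and product was quantified by RapidFire SPE (C4) with negative-mode SRM mass spectrometry. Percent inhibition was calculated against compound-free and enzyme-free controls.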

Row | Structure (SMILES) | inhibition at 10 µM
1 | O=C1COc2cc(F)c(C(=O)N3CC(COc4ccc(OC(F)F)cc4)C3)cc2N1 [Example 270, 6-((3-((4-(difluoromethoxy)phenoxy)methyl)azetidin-1-yl)carbonyl)-7-fluoro-2H-1,4-benzoxazin-3(4H)-one] | 101%
2 | O=C1COc2cc(F)c(C(=O)N3CC(COCc4ccccc4)C3)cc2N1 [Example 271, 6-((3-((benzyloxy)methyl)azetidin-1-yl)carbonyl)-7-fluoro-2H-1,4-benzoxazin-3(4H)-one] | 95%
3 | O=C1COc2cc(F)c(C(=O)N3CC(COCc4ccc5scnc5c4)C3)cc2N1 [Example 272, 6-((3-((1,3-benzothiazol-5-ylmethoxy)methyl)azetidin-1-yl)carbonyl)-7-fluoro-2H-1,4-benzoxazin-3(4H)-one] | 100%
4 | O=C1COc2cc(F)c(C(=O)N3CC(COc4ccc5c(c4)OCC5)C3)cc2N1 [Example 273, 6-((3-((2,3-dihydro-1-benzofuran-6-yloxy)methyl)azetidin-1-yl)carbonyl)-7-fluoro-2H-1,4-benzoxazin-3(4H)-one] | 101%
5 | O=C1COc2cc(F)c(C(=O)N3CCC(COc4cccn5nccc45)CC3)cc2N1 [Example 274, 7-fluoro-6-((4-((pyrazolo[1,5-a]pyridin-4-yloxy)methyl)piperidin-1-yl)carbonyl)-2H-1,4-benzoxazin-3(4H)-one] | 102%
6 | O=C1COc2cc(F)c(C(=O)N3CCC(COc4cccc5ccnn45)CC3)cc2N1 [Example 275, 7-fluoro-6-((4-((pyrazolo[1,5-a]pyridin-7-yloxy)methyl)piperidin-1-yl)carbonyl)-2H-1,4-benzoxazin-3(4H)-one] | 99%
7 | O=C1COc2cc(F)c(C(=O)N3CC(COc4ccc(C(F)(F)F)c(F)c4)C3)cc2N1 [Example 277, 7-fluoro-6-((3-((3-fluoro-4-(trifluoromethyl)phenoxy)methyl)azetidin-1-yl)carbonyl)-2H-1,4-benzoxazin-3(4H)-one] | 104%
8 | O=C1COc2cc(F)c(C(=O)N3CC(COc4cnc5c(c4)CCCO5)C3)cc2N1 [Example 279, 6-((3-((3,4-dihydro-2H-pyrano[2,3-b]pyridin-6-yloxy)methyl)azetidin-1-yl)carbonyl)-7-fluoro-2H-1,4-benzoxazin-3(4H)-one] | 101%
9 | O=C1COc2cc(F)c(C(=O)N3CC(COC4CCCCC4)C3)cc2N1 [Example 280, 6-((3-((cyclohexyloxy)methyl)azetidin-1-yl)carbonyl)-7-fluoro-2H-1,4-benzoxazin-3(4H)-one] | 102%
10 | O=C1COc2cc(F)c(C(=O)N3CC(COc4ccc(F)cc4Cl)C3)c(F)c2N1 [Example 281, 6-((3-((2-chloro-4-fluorophenoxy)methyl)azetidin-1-yl)carbonyl)-5,7-difluoro-2H-1,4-benzoxazin-3(4H)-one] | 100%
11 | O=C1COc2cc(F)c(C(=O)N3CC(COC4CCC(F)(F)CC4)C3)cc2N1 [Example 282, 6-((3-(((4,4-difluorocyclohexyl)oxy)methyl)azetidin-1-yl)carbonyl)-7-fluoro-2H-1,4-benzoxazin-3(4H)-one] | 99%
12 | CC1(COc2ccc(F)cc2Cl)CN(C(=O)c2cc3c(cc2F)OCC(=O)N3)C1 [Example 283, 6-((3-((2-chloro-4-fluorophenoxy)methyl)-3-methylazetidin-1-yl)carbonyl)-7-fluoro-2H-1,4-benzoxazin-3(4H)-one] | 101%
13 | O=C1COc2cc(F)c(C(=O)N3CCC(COc4ccc5c(c4)CCCC5)CC3)cc2N1 [Example 284, 7-fluoro-6-((4-((5,6,7,8-tetrahydronaphthalen-2-yloxy)methyl)piperidin-1-yl)carbonyl)-2H-1,4-benzoxazin-3(4H)-one] | 96%
14 | O=C1COc2cc(F)c(C(=O)N3CCC(COc4ccccc4)CC3)cc2N1 [Example 285, 7-fluoro-6-((4-(phenoxymethyl)piperidin-1-yl)carbonyl)-2H-1,4-benzoxazin-3(4H)-one] | 98%
15 | O=C1COc2cc(F)c(C(=O)N3CC(COc4ccc5c(c4Br)CCCC5)C3)cc2N1 [Example 286, 6-((3-(((1-bromo,-5,6,7,8-tetrahydronaphthalen-2-yl)oxy)methyl)azetidin-1-yl)carbonyl)-7-fluoro-2H-1,4-benzoxazin-3(4H)-one] | 98%
16 | CC(Oc1ccc(F)cc1Cl)C1CCN(C(=O)c2cc3c(cc2F)OCC(=O)N3)CC1 (centres unmarked) [Example 293, 6-((4-(1-(2-chloro-4-fluorophenoxy)ethyl)piperidin-1-yl)carbonyl)-7-fluoro-2H-1,4-benzoxazin-3(4H)-one] | 102%

Next, values leading:

Row | inhibition at 10 µM | Structure (SMILES)
17 | 98% | Cc1ncccc1-c1ccc(OCC2CN(C(=O)c3cc4c(cc3F)OCC(=O)N4)C2)c(F)c1 [Example 262, 7-fluoro-6-((3-((2-fluoro-4-(2-methylpyridin-3-yl)phenoxy)methyl)azetidin-1-yl)carbonyl)-2H-1,4-benzoxazin-3(4H)-one]
18 | 97% | Cc1ccc(-c2ccc(OCC3CN(C(=O)c4cc5c(cc4F)OCC(=O)N5)C3)c(F)c2)cn1 [Example 263, 7-fluoro-6-((3-((2-fluoro-4-(6-methylpyridin-3-yl)phenoxy)methyl)azetidin-1-yl)carbonyl)-2H-1,4-benzoxazin-3(4H)-one]
19 | 101% | Cc1cc(-c2ccc(OCC3CN(C(=O)c4cc5c(cc4F)OCC(=O)N5)C3)c(F)c2)ccn1 [Example 264, 7-fluoro-6-((3-((2-fluoro-4-(2-methylpyridin-4-yl)phenoxy)methyl)azetidin-1-yl)carbonyl)-2H-1,4-benzoxazin-3(4H)-one]
20 | 99% | Cc1nn(C)cc1-c1cc(Cl)ccc1OCC1CN(C(=O)c2cc3c(cc2F)OCC(=O)N3)C1 [Example 265, 6-((3-((4-chloro-2-(1,3-dimethyl-1H-pyrazol-4-yl)phenoxy)methyl)azetidin-1-yl)carbonyl)-7-fluoro-2H-1,4-benzoxazin-3(4H)-one]
21 | 99% | Cc1c(-c2cc(Cl)ccc2OCC2CN(C(=O)c3cc4c(cc3F)OCC(=O)N4)C2)cnn1C [Example 266, 6-((3-((4-chloro-2-(1,5-dimethyl-1H-pyrazol-4-yl)phenoxy)methyl)azetidin-1-yl)carbonyl)-7-fluoro-2H-1,4-benzoxazin-3(4H)-one]
22 | 101% | Cc1nn(C)c(C)c1-c1cc(Cl)ccc1OCC1CN(C(=O)c2cc3c(cc2F)OCC(=O)N3)C1 [Example 267, 6-((3-((4-chloro-2-(1,3,5-trimethyl-1H-pyrazol-4-yl)phenoxy)methyl)azetidin-1-yl)carbonyl)-7-fluoro-2H-1,4-benzoxazin-3(4H)-one]
23 | 101% | Cc1nc(C)c(-c2cc(Cl)ccc2OCC2CN(C(=O)c3cc4c(cc3F)OCC(=O)N4)C2)s1 [Example 268, 6-((3-((4-chloro-2-(2,4-dimethyl-1,3-thiazol-5-yl)phenoxy)methyl)azetidin-1-yl)carbonyl)-7-fluoro-2H-1,4-benzoxazin-3(4H)-one]
24 | 101% | Cc1ccc(OCC2CN(C(=O)c3cc4c(cc3F)OCC(=O)N4)C2)cc1F [Example 269, 7-fluoro-6-((3-((3-fluoro-4-methylphenoxy)methyl)azetidin-1-yl)carbonyl)-2H-1,4-benzoxazin-3(4H)-one]
25 | 97% | Cc1ccnc(-c2ccc(OCC3CN(C(=O)c4cc5c(cc4F)OCC(=O)N5)C3)c(F)c2)c1 [Example 276]
26 | 103% | O=C1COc2cc(F)c(C(=O)N3CC(COc4ccc(F)c(C(F)(F)F)c4)C3)cc2N1 [Example 278, 7-fluoro-6-((3-((4-fluoro-3-(trifluoromethyl)phenoxy)methyl)azetidin-1-yl)carbonyl)-2H-1,4-benzoxazin-3(4H)-one]
27 | 100% | Cc1cc(OCC2CN(C(=O)c3cc4c(cc3F)OCC(=O)N4)C2)ccc1F [Example 287, 7-fluoro-6-((3-((4-fluoro-3-methylphenoxy)methyl)azetidin-1-yl)carbonyl)-2H-1,4-benzoxazin-3(4H)-one]
28 | 101% | O=C1COc2cc(F)c(C(=O)N3CC(COc4ccc(C(F)F)cc4F)C3)cc2N1 [Example 288, 6-((3-((4-(difluoromethyl)-2-fluorophenoxy)methyl)azetidin-1-yl)carbonyl)-7-fluoro-2H-1,4-benzoxazin-3(4H)-one]
29 | 88% | O=C1COc2cc(F)c(C(=O)N3CC(COc4ccc(-c5cccc(F)n5)cc4F)C3)cc2N1 [Example 289, 7-fluoro-6-((3-((2-fluoro-4-(6-fluoropyridin-2-yl)phenoxy)methyl)azetidin-1-yl)carbonyl)-2H-1,4-benzoxazin-3(4H)-one]
30 | 100% | Cc1nc(F)ccc1-c1ccc(OCC2CN(C(=O)c3cc4c(cc3F)OCC(=O)N4)C2)c(F)c1 [Example 290, 7-fluoro-6-((3-((2-fluoro-4-(6-fluoro-2-methylpyridin-3-yl)phenoxy)methyl)azetidin-1-yl)carbonyl)-2H-1,4-benzoxazin-3(4H)-one]
31 | 100% | O=C1COc2cc(F)c(C(=O)N3CC(COc4ccc(N5CC(F)C5)cc4Cl)C3)cc2N1 [Example 291, 6-((3-((2-chloro-4-(3-fluoroazetidin-1-yl)phenoxy)methyl)azetidin-1-yl)carbonyl)-7-fluoro-2H-1,4-benzoxazin-3(4H)-one]
32 | 100% | O=C1COc2cc(F)c(C(=O)N3CC(COc4ccc(N5CC(F)C5)cc4F)C3)cc2N1 [Example 292, 7-fluoro-6-((3-((2-fluoro-4-(3-fluoroazetidin-1-yl)phenoxy)methyl)azetidin-1-yl)carbonyl)-2H-1,4-benzoxazin-3(4H)-one]
